The source of these data is US20090012118A1, “Kynurenic Acid Amide Derivatives as Nr2b Receptor Antagoni” (priority 2004, published 2009).

Experiment [1] relates to NMRI mice. As to the kind of experiment: Mouse formalin test (second phase, licking/biting time). It counts as in vivo. To be noted: 15 min before formalin, licking time 20-25 min after formalin; for ED50: Mus musculus, po; for ED50 in mouse formalin test: p.o. The procedure: Injection of diluted formalin into the hind paw of rats or mice is known to elicit a biphasic pain-related behavior measured as time spent by licking/biting of the injured paw. The second phase is generally defined as pain related events detected in the 15-60 min. time interval after formalin injection. It is known that NMDA receptors are involved in the second phase of response to formalin injection and this behavioral response is sensitive to blockade of NMDA receptors [Dickenson, A. and Besson J.-M. (Editors): Chapter 1, pp. 6-7: Animal models of Analgesia; and Chapter 8, pp. 180-183: Mechanism of Central Hypersensitivity: Excitatory Amino Acid Mechanisms and Their Control—In Pharmacology of Pain. Springer-Verlag (Berlin) 1997.] Therefore, we used the second phase of formalin test to characterize the efficacy of compounds in vivo. Inhibition of the second phase of response is considered to indicate an analgesic effect against chemically-induced persistent pain [Hunskaar, S., et al.: Formalin Test in Mice, a Useful Technique for Evaluating Mild Analgesics, Journal of Neuroscience Methods, 14 (1985) 69-76.]
Male albino NMRI mice (20-25 g) were used. Prior to the experiment any solid food was withdrawn for approx. 16 hours but the animals had free access to 20% glucose solution. The animals were allowed 1 hour acclimatization period in a glass cylinder (cc. 15 cm in diameter), then moved to an identical cylinder with a mirror placed behind to facilitate observation. The test substances were suspended in 5% tween-80 (10 ml per kg body weight). and administered orally by gavage 15 min before the formalin injection (20 μl of 1% formalin in 0.9% saline injected subcutaneously into the dorsal surface of the right hind paw). The time spent by licking and biting of the injected paw was measured from 20 to 25 min. after the formalin injection.

The target of experiment [2] is T1, NR1-3/NR2A NMDA receptor (Homo sapiens, UniProt Q05586+Q12879).
T1 construct: expressed in transfected cells
As to the kind of experiment: Functional NMDA antagonism, fluorimetric intracellular calcium measurement on HEK293 cells expressing NR1-3/NR2A. It counts as cell-based. Also on record: NR1-3/NR2A % inhibition: dose or concentration left out as unconfirmed. To be noted: for inhibition at 10 µM: reference compounds; for inhibition at 15 µM: NMDA evoked calcium rise. The procedure: (§1) (2003)]. […] Compounds were tested for their inhibitory action on NMDA evoked cytosolic calcium elevations in fluorescent calcium measurements. Studies were performed 48-72 h after addition of the inducing agent. Ketamine (500 μM) was also present during the induction in order to prevent cytotoxicity.
(§2) Since NMDA receptors are known to be permeable to calcium ions upon excitation, the extent of NMDA receptor activation, and its inhibition by functional antagonists can be characterized by measuring the rise in the intracellular calcium concentration following agonist (NMDA) application onto the cells. Since there is very high sequence homology between rat and human NMDA receptors (99, 95, 97% for NR1, NR2A, and NR2B subunits, respectively), it is believed that there is little, if any, difference in their pharmacological sensitivity.
(§3) The intracellular calcium measurements are carried out on HEK293 cells expressing NR1a and NR2B or NR2A NMDA receptor subunits. The cells are plated onto standard 96-well microplates and the cultures are maintained in an atmosphere of 95% air −5% CO2 at 37° C. until testing.
(§4) The cells are loaded with a fluorescent Ca^2+-sensitive dye, Fluo-4/AM (2-2.5 μM) prior to testing. Loading is stopped by washing twice with the solution used also during the measurement (140 mM NaCl, 5 mM KCl, 2 mM CaCl2, 5 mM HEPES [4-(2-hydroxyethyl)-1-piperazineethane-sulfonic acid], 5 mM HEPES-Na, 20 mM glucose, 10 μM glycine, pH=7.4). Then the test compound dissolved in the above solution (90 μl/well) is added. Intracellular calcium measurements are carried out with a plate reader fluorimeter. A rise in Fluo-4-fluorescence that reflects the intracellular calcium concentration is induced by application of 200 μM NMDA. Inhibitory potency of the test compound is assessed by measuring the reduction in the calcium elevation in the presence of different concentrations of the compound.
(§5) Inhibitory potency of a compound at a single concentration point is expressed as percent inhibition of the control NMDA response. For NR1a/NR2B expressing cells concentration-inhibition curves are produced. Sigmoidal concentration-inhibition curves are fitted over the data and IC50 values are defined as the concentration that produces half of the maximal inhibition that could be achieved with the compound. Mean IC50 values are derived from at least three independent experiments. For NR1-3/NR2A expressing cells antagonism of NMDA induced rise in intracellular calcium concentration by compounds of the present invention and reference compounds was tested at 10 and 15 microM concentration, respectively.
Background: A change in cytosolic calcium serves as a functional read-out for many receptors and channels.

The target of a further experiment is T2, NR1a/NR2B NMDA receptor (Rattus norvegicus, UniProt P35439+Q00960).
T2 construct: expressed in transfected cells
Description: Functional NMDA antagonism, fluorimetric intracellular calcium measurement on HEK293 cells expressing NR1a/NR2B. It counts as cell-based. As for the experimental part: Compounds were tested for their inhibitory action on NMDA evoked cytosolic calcium elevations in fluorescent calcium measurements. Studies were performed 48-72 h after addition of the inducing agent. Ketamine (500 μM) was also present during the induction in order to prevent cytotoxicity.
Since NMDA receptors are known to be permeable to calcium ions upon excitation, the extent of NMDA receptor activation, and its inhibition by functional antagonists can be characterized by measuring the rise in the intracellular calcium concentration following agonist (NMDA) application onto the cells.
The intracellular calcium measurements are carried out on HEK293 cells expressing NR1a and NR2B or NR2A NMDA receptor subunits.
as §4, with “Loading” for “The cells are loaded with a fluorescent Ca^2+-sensitive dye, Fluo-4/AM (2-2.5 μM) prior to testing. Loading”
as §5

For experiment [3], the system named is NMRI mice. Description: Mouse formalin test (second phase, licking/biting time). It counts as in vivo.
Experiment [4] concerns the target T3, NR1-3/NR2A NMDA receptor (Homo sapiens, UniProt Q12879).
T3 construct: expressed in transfected cells
As to the kind of experiment: Functional NMDA antagonism, fluorimetric intracellular calcium measurement on HEK293 cells expressing NR1-3/NR2A. It counts as cell-based. Details: NR1-3/NR2A % inhibition: dose or concentration left out as unconfirmed. To be noted: reference compounds. The procedure:
as §1, §2, §3, §4, §5

Where [5] appears, read: HEK293 cells expressing NR1a/NR2B, reference compounds, read-out: NR1a/NR2B IC50.
The mark [6] stands for this setting: HEK293 cells expressing NR1a/NR2B, 200 μM NMDA evoked calcium rise, compounds of the invention, read-out: NR1a/NR2B IC50.

The structures appear in SMILES notation. Like-named read-outs stand apart in the source and are kept apart here.

T1 sequence (Q12879 23-1464, other chains not shown): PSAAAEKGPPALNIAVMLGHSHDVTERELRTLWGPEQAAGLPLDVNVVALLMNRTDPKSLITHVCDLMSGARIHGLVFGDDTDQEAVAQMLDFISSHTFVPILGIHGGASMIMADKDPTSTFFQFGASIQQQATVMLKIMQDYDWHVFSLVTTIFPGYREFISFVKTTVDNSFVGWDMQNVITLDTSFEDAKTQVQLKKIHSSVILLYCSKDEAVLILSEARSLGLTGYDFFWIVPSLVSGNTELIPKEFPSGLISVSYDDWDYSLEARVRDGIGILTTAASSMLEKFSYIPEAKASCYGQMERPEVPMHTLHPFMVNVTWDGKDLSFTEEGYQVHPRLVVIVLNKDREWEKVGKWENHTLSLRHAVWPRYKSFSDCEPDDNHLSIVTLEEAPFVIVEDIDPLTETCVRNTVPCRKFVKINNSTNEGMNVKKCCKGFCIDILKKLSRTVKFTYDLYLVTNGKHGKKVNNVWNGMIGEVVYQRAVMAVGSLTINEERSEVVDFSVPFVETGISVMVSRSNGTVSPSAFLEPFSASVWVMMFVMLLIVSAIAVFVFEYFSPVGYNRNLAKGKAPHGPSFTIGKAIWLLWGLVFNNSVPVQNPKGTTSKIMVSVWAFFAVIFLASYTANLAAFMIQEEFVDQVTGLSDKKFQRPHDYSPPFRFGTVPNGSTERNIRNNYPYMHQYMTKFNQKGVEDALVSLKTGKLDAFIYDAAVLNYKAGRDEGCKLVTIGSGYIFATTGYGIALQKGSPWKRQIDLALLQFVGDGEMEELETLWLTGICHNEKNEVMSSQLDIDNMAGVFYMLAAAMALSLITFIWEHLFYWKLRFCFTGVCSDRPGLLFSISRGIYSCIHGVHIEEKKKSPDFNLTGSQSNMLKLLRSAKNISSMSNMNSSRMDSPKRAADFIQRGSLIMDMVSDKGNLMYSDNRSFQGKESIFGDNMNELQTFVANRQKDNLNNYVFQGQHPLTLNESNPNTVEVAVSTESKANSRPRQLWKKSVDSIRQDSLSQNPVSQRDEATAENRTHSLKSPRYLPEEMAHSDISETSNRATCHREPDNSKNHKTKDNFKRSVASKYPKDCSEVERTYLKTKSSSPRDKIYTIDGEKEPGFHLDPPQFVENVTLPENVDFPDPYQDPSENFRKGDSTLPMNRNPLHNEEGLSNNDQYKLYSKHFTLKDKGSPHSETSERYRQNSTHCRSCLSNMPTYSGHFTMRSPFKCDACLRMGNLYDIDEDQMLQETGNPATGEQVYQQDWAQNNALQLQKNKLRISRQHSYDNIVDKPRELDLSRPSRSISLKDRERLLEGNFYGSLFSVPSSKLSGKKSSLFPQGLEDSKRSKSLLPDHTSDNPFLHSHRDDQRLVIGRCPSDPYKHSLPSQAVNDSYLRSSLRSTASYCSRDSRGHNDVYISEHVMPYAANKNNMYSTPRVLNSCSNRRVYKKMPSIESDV
T2 sequence (Q00960 27-1482, other chains not shown): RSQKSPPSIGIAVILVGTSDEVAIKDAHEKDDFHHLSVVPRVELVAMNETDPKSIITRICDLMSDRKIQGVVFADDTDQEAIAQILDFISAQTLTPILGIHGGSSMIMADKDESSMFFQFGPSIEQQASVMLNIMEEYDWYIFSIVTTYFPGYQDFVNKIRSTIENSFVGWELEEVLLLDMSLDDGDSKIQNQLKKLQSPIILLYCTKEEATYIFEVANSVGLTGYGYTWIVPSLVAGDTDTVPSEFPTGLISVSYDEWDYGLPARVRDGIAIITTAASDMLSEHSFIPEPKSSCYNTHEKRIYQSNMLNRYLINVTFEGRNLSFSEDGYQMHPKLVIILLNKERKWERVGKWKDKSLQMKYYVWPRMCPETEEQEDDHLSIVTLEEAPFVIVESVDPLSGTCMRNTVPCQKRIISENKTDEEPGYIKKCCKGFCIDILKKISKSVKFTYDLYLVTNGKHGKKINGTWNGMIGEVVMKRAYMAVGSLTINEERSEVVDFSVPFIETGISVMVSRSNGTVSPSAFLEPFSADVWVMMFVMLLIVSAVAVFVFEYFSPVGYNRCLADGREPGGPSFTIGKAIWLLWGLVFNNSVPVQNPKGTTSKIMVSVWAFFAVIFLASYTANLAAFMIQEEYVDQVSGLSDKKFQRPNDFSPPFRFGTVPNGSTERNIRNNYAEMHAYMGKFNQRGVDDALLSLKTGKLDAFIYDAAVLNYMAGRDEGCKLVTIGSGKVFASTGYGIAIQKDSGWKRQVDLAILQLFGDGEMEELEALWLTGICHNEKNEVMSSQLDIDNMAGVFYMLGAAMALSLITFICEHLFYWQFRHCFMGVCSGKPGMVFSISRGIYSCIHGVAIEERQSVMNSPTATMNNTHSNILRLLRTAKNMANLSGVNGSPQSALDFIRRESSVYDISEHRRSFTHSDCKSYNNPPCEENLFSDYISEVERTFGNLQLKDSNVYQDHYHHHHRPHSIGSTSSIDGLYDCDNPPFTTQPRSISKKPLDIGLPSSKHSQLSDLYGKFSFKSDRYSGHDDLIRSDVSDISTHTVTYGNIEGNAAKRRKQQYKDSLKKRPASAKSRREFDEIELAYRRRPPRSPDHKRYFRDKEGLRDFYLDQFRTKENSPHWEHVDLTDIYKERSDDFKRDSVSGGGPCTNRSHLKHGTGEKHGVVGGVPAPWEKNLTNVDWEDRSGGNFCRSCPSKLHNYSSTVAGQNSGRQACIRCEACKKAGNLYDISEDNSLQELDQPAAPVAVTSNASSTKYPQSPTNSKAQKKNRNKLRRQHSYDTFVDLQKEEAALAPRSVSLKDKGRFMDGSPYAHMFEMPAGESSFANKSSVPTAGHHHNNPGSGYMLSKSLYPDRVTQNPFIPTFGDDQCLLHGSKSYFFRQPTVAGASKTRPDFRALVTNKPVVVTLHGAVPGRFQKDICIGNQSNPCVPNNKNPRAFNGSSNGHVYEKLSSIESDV
T3 sequence (Q12879 23-1464, other chains not shown): as the sequence (Q12879 23-1464, other chains not shown) above

Regarding `O=c1[nH]c2ccc([S+]([O-])CCN3CCC(Cc4ccc(F)cc4)CC3)cc2o1` (centres unmarked) [CI-1041, 6-{2-[4-(4-fluoro-benzyl)-piperidin-1-yl]-ethanesulfinyl}-3H-benzooxazol-2-one, reference compound], in the experiment with NMRI mice [1], the 50% effect level (ED50) was put at a dose of 2.4 mg/kg. Also, on NR1-3/NR2A NMDA receptor [2], the inhibition (as a rule, the relative decrease from the control value, in per cent) at 10 µM came to 21%. Moreover, on NR1a/NR2B NMDA receptor, the IC50 was 8.4 nM.
Consider `C[C@@H]([C@@H](O)c1ccc(O)cc1)N1CCC(O)(c2ccccc2)CC1` [CP 101,606, (1S,2S)-1-(4-hydroxyphenyl)-2-(4-hydroxy-4-phenylpiperidine-1-yl)-1-propanol, reference compound], for which the ED50 with NMRI mice [3] (sc) and in the experiment with NMRI mice [1] was greater than 20 mg/kg in each case. Besides, the inhibition at 10 µM on NR1-3/NR2A NMDA receptor [2] worked out at 2.5%.
`Cc1ccc(CC2(O)CCN(CCOc3ccc(O)cc3)CC2)cc1` [Co-101244, 1-[2-(4-hydroxyphenoxy)ethyl]-4-hydroxy-4-(4-methylbenzyl)piperidine, reference compound]: the ED50 – broadly, the dose at which the effect has come halfway, by size or by number of responders – in the experiment with NMRI mice [3] (ip) stood at 5.9 mg/kg. Moreover, the “ED50 in mouse formalin test” value in the experiment on NMRI mice [1] was “inactive”. For the same compound, on NR1-3/NR2A NMDA receptor [2], the inhibition at 10 µM was -8.7%. Further, the IC50 at NR1a/NR2B NMDA receptor (setting [5]) is 4.8 nM.
The compound `Oc1ccc(OCCN2CCC(Cc3ccc(F)cc3)CC2)cc1` [Co-111103, 1-[2-(4-hydroxyphenoxy)ethyl]-4-(4-fluorobenzyl)piperidine, reference compound] displayed an ED50 in the experiment on NMRI mice [1] greater than 20 mg/kg.
With `O=C(CCN1CCC(Cc2ccc(F)cc2)CC1)c1ccc2[nH]c(=O)oc2c1` [EMD 95885, reference compound], the “ED50 in mouse formalin test” value with NMRI mice [1] worked out at 3.7 mg/kg. The NR1-3/NR2A % inhibition at NR1-3/NR2A NMDA receptor [4] stood at 0.1%. Also, the IC50 at NR1a/NR2B NMDA receptor (setting [5]) was found to be 48 nM.
In the experiment with NMRI mice [1], `O=C(c1cc(=O)c2cc(O)ccc2[nH]1)N1CCC(Cc2ccc(F)cc2)CC1` [Example 1, 2-[4-(4-Fluoro-benzyl)-piperidine-1-carbonyl]-6-hydroxy-1H-quinolin-4-one] registered an ED50 of 9.5 mg/kg. Also, at NR1-3/NR2A NMDA receptor [2], the inhibition at 15 µM was -0.9%. Besides, at NR1a/NR2B NMDA receptor (setting [6]), the IC50 is 4 nM.
The compound `O=C(c1cc(=O)c2cc(O)ccc2[nH]1)N1CCC(Cc2ccccc2)CC1` [Example 2, 2-(4-Benzyl-piperidine-1-carbonyl)-6-hydroxy-1H-quinolin-4-one] displayed an ED50 in the experiment with NMRI mice [1] greater than 20 mg/kg. Also, the inhibition at 15 µM at NR1-3/NR2A NMDA receptor [2] is 7%. The IC50 on NR1a/NR2B NMDA receptor (setting [6]) is 3.7 nM.
On the same counts, the results for `Cc1ccc(CC2CCN(C(=O)c3cc(=O)c4cc(O)ccc4[nH]3)CC2)cc1` [Example 3, 6-Hydroxy-2-[4-(4-methyl-benzyl)-piperidine-1-carbonyl]-1H-quinolin-4-one] are 8.9 mg/kg, -2.4% and 3.8 nM.
On the same counts, the results for `O=C(c1cc(=O)c2cc(O)ccc2[nH]1)N1CCC(Cc2ccc(Cl)cc2)CC1` [Example 4, 2-[4-(4-Chloro-benzyl)-piperidine-1-carbonyl]-6-hydroxy-1H-quinolin-4-one] are greater than 20 mg/kg, -5.1% and 1.9 nM.
With `O=C(c1cc(=O)c2cc(O)ccc2[nH]1)N1CCC(OCc2ccccc2)CC1` [Example 5, 2-(4-Benzyloxy-piperidine-1-carbonyl)-6-hydroxy-1H-quinolin-4-one], the inhibition at 15 µM at NR1-3/NR2A NMDA receptor [2] was found to be 5.7%. For the same compound, the IC50 at NR1a/NR2B NMDA receptor (setting [6]) was 21.5 nM.
For `O=C(c1cc(=O)c2cc(O)ccc2[nH]1)N1CCC(COc2ccccc2)CC1` [Example 6, 6-Hydroxy-2-(4-Phenoxymethyl-piperidine-1-carbonyl)-1H-quinolin-4-one], the ED50 in the experiment with NMRI mice [1] stood at 0.46 mg/kg. Also, the inhibition at 15 µM on NR1-3/NR2A NMDA receptor [2] was determined as 14%. For the same compound, the IC50 at NR1a/NR2B NMDA receptor (setting [6]) worked out at 8.9 nM.
`O=C(c1cc(=O)c2cc(O)ccc2[nH]1)N1CCC(Oc2ccc(Cl)cc2)CC1` [Example 7] came in with an ED50 in the experiment on NMRI mice [1] greater than 20 mg/kg. Besides, the inhibition at 15 µM at NR1-3/NR2A NMDA receptor [2] was 5.1%. The IC50 at NR1a/NR2B NMDA receptor (setting [6]) turned out to be 5.1 nM.
Regarding `Cc1ccc(OC2CCN(C(=O)c3cc(=O)c4cc(O)ccc4[nH]3)CC2)cc1` [Example 8, 6-Hydroxy-2-(4-p-tolyloxy-piperidine-1-carbonyl)-1H-quinolin4-one], it took a dose of 8.2 mg/kg to reach the 50% effect level with NMRI mice [1] (ED50). Besides, the inhibition at 15 µM at NR1-3/NR2A NMDA receptor [2] was -3.5%. Also, at NR1a/NR2B NMDA receptor (setting [6]), the IC50 was determined as 3.3 nM.
On to `O=C(c1cc(=O)c2cc3[nH]c(=O)oc3cc2[nH]1)N1CCC(Cc2ccccc2)CC1` [Example 9, 6-(4-Benzyl-piperidine-1-carbonyl)-1,5-dihydro-oxazolo[4,5-g]quinoline-2,8-dione], for which the ED50 in the experiment on NMRI mice [1] is greater than 20 mg/kg. Besides, at NR1-3/NR2A NMDA receptor [2], the inhibition at 15 µM is -2.1%. For the same compound, the IC50 at NR1a/NR2B NMDA receptor (setting [6]) worked out at 5.6 nM.
As for `O=C(c1cc(=O)c2cc(O)ccc2[nH]1)N1CCC(Oc2ccccc2)CC1` [Example 10, 6-Hydroxy-2-(4-phenoxy-piperidine-1-carbonyl)-1H-quinolin-4-one], the inhibition at 15 µM on NR1-3/NR2A NMDA receptor [2] was determined as 0.2%. Further, the IC50 on NR1a/NR2B NMDA receptor (setting [6]) came out at 28 nM.
In turn, `CC(CN1CCC(Cc2ccccc2)CC1)C(O)c1ccc(O)cc1` (stereo not drawn) [Ro 25.6981, R—(R*,S*)-1-(4-hydroxyphenyl)-2-methyl-3-[4-(phenylmethyl)piperidin-1-yl]-1-propanol, reference compound] registered an ED50 in the experiment with NMRI mice [3] (ip) of 5.1 mg/kg. For the same compound, the “ED50 in mouse formalin test” value with NMRI mice [1] is “inactive”. On NR1-3/NR2A NMDA receptor [2], the inhibition at 10 µM is 1%. The IC50 on NR1a/NR2B NMDA receptor was 57 nM.
Regarding `CC(C(O)c1ccc(O)cc1)N1CCC(Cc2ccccc2)CC1` (stereo not drawn) [ifenprodil, erythro-2-(4-benzylpiperidino)-1-(4-hydroxyphenyl)-1-propanol, reference compound], the inhibition at 10 µM on NR1-3/NR2A NMDA receptor [2] is -2.7%.
